Bridges are numbered along the chain shown (N, C = ends). Roman numbers before positions name the chains, in order. Where no end group is shown, it is not given here.
Assays:
mRNA [1] = experiment: Heparin displacement assays (gel electrophoresis and Sybr Gold dye intercalation); format: physicochemical; conditions: HK:mRNA 4:1 wt/wt
Procedure: FIG. 4. Heparin Displacement Assays. After HK polyplexes were formed (wt:wt; HK:mRNA; 4 μg:1 μg), different concentrations of heparin […] were incubated with these for 30 min. A. Gel Retardation. The HK polyplexes were loaded on the agarose gel (1%), and electrophoresis was carried out and stained with Sybr Gold. B. Fluorescent dye intercalation. After the HK polyplexes were formed and incubated with several concentrations of heparin, the Sybr Gold nucleic acid dye was incubated with the HK polyplexes for 5 mins. Fluorescence was then measured by a microplate fluorimeter (λex=497 nm, λem=520 nm) (SynergyMx, BioTek). *, P<0.05; ***, P<0.001; H3K4b or H2K vs. H3K(+H)4b.
Heparin Displacement Assays. Heparin displacement assays of HK polyplexes were done with the dye intercalation assay and with gel electrophoresis. A fluorescent assay assessed polyplexes of HK polymer and mRNA (4:1 wt/wt ratio; polymer:mRNA) formed in RNAse/DNAase free water (Corning, Manassas, VA). HK polyplexes were prepared as described previously, followed by the addition of diluted Syber Gold. For detection, working dilutions of the polyplexes (1/5 of volume), water (3/5) and Sybr Gold dye (1/5, 0.2×) were incubated for 5 minutes, and fluorescence was measured by a fluorimeter (Ex=497 nm, Em=520 nm) (SynergyMx, BioTek, Winooski, VT). The control sample was prepared with the same amount of mRNA, water, and Sybr Gold dye. For the heparin displacement, instead of water, heparin salt (Sigma-Aldrich, St. Louis, MO) solutions at different concentrations (0.5, 1, 1.5, 2, 3 μg/μl) were used, and the HK polyplexes were incubated at 37° C. for 30 min before addition of Sybr Gold.
Displacement of mRNA from HK polyplexes with heparin was also done with gel electrophoresis. After HK polyplexes were formed, different concentrations of heparin (0.5, 1.0, 1.5, 2.0, 3.0 μg/μl; volume 20 μl) were incubated with these at 37° C. for 30 min. The polyplexes were then loaded on the agarose gel (1%; 10× BlueJuice Gel loading buffer), and electrophoresis was carried out and stained with SG as described above. […]

[2] = Acid-base titration of HK polymer solutions; format: physicochemical; conditions: pH titration curves, 5 mg/ml
Procedure: FIG. 2. Titration of different HK peptide solutions. Solutions of polymers (5 mg/ml) (H2K4b, H3K4b, H3K(+H)4b, and H4K4b) were adjusted to pH 3 (initial volume—1 ml) and then […] aliquots of 0.05 N NaOH were stepwise added and the pH measured.
Acid-Base Titration. After polymer solutions (e.g. containing one or more of H2K4b, H3K4b, H3K(+H)4b, and H4K4b) were adjusted to pH 3.0 (5 mg/mil; initial volume—1 mil), aliquots (5 μl) of NaOH (0.05 N) were stepwise added with the pH measured (FiveEasy™ meter; InLab Solids Pro-ISM pH electrode, Mettler Toledo, Columbus, OH). Titration was stopped at about pH 9.0.

mRNA [3] = experiment: Gel retardation assay of HK polymer/mRNA polyplexes; format: physicochemical; conditions: 1:2 and 1:1 ratios (wt:wt; peptide:mRNA)
Procedure: FIG. 3. Gel retardation assay. After H3K(+H)4b or H3K4b carriers were mixed with mRNA at the various ratios shown in the figure (wt:wt; peptide:mRNA, mRNA was 1 μg in each) for 30 min, the HK polyplexes were loaded onto the gel (1% agarose). Electrophoresis was carried out at a constant voltage of 75 V for 30 min in TAE buffer and then stained with Sybr Gold as detailed herein. In first lane, RNA standard (New England Biolabls, B0363A) was loaded whereas in the second lane, the control, luciferase mRNA without a carrier was loaded into the well. In subsequent lanes, various ratios of mRNA:HK were loaded into wells.
Gel Retardation Assay. Various amounts of HK polymers were mixed with […] of mRNA and incubated for 30 min at room temperature. Specifically, the following HK polymer/mRNA ratios (w/w) were prepared in water: 1/2; 1/1; 2/1, 4/1, 8/1. After 30 min, the HK polyplex was loaded onto the gel (1% agarose, Sigma-Aldrich; 10× BlueJuice Gel loading buffer, ThermoFisher Scientific), electrophoresis was then carried out at a constant voltage of 75 V for 30 min in TAE buffer (Quality Biologicals, Gaithersburg, MD). The mRNA was stained with Sybr Gold Nucleic Acid dye (SG, 1×) (ThermoFisher Scientific) for 30 min before exposure to the UV imager (ChemiDoc Touch, BIO-RAD, Hercules, CA).

MDA-MB-231 cells = experiment: In vitro mRNA transfection with HK polyplexes (luciferase mRNA, luciferase activity); format: cell-based; conditions: for RLU/μg-Protein (luciferase activity): mRNA 1 μg, 24 h
Procedure: FIG. 1. Comparison of H3K(+H)4b and H3K4b peptides as carriers of mRNA. To form the HK polyplexes, the mRNA (1 μg) was mixed with 3 different ratios of the HK ([…]) polymer for 30 minutes. The HK polyplexes were then added to the cells for 24 h before the luciferase activity was measured. ****, H3K(+H)4b vs H3K4b, P<0.0001.
In vitro mRNA Transfection. Several HK polymers were examined for their ability to carry a luciferase-expressing mRNA (CleanCap Firefly Luciferase mRNA, Trilink Biotechnologies, Inc, San Diego, CA) into MDA-MB-231 cells (America Type Tissue Culture, Manassas, VA). In brief, 3×10^4 cells were plated into a 24-well plate containing 500 μl of DMEM and 10% fetal bovine serum (ThermoFisher Scientific, Waltham, MA). After 24 h, when the cells were 60 to 80% confluent, the media in each well was changed to Opti-MEM (ThermoFisher Scientific). To prepare HK polyplexes, mRNA (1 μg) in 50 μl of Opti-MEM was briefly mixed well with one of the HK polymers (4 to 12 μg) and maintained at room temperature for 30 min. This polyplex was then added dropwise to the cells. After four h, the Opti-MEM media was removed and replaced with 0.5 ml of DMEM/10% serum (0.5 ml). Twenty-four hours later, the cells were lysed, and the luciferase activity (Promega Corporation, Madison, WI) was measured.
To obtain the data in Table 4, luciferase-expressing mRNA (1 μg) in 50 μl of Opti-MEM was briefly mixed with one of the HK polymers (4, 8, or 12 μg) and maintained at room temperature for 30 min. The resulting polyplexes were added dropwise to the MDA-NM-231 cells and after four h, the Opti-MEM media was removed and replaced with DMEM/10% serum. Twenty-four hours later, the cells were lysed, and the luciferase activity was measured

With “I: KHHHKHHHKHHHHKHHHKKKK-NH2 / II: KHHHKHHHKHHHHKHHHK / III: KHHHKHHHKHHHHKHHHK / IV: KHHHKHHHKHHHHKHHHK (amide I:19-IV:C, I:20-III:C, I:21-II:C) [H3K(+H)4b]” the “binding/release of mRNA and polyplex stability on exposure to heparin (in words)” value (mRNA [1]) was “binds more tightly to the mRNA”, the “buffering profile / buffering capacity (in words)” value [2] was “minimal differences in their buffering profile” and the “retardation of mRNA at low ratios compared with H3K4b (in words)” value (mRNA [3]) was “markedly less retarded”. For the same substance, the “luciferase expression, fold greater than with H3K4b” value (MDA-MB-231 cells; 4:1 ratio (HK:mRNA; wt:wt)) was 10 fold, the “effectiveness as carrier of mRNA (in words)” value (MDA-MB-231 cells; luciferase mRNA, HK polyplex) was “markedly better as a carrier of mRNA” and the “RLU/μg-Protein (luciferase activity)” value (MDA-MB-231 cells; ratio mRNA:polymer 1:4 (wt:wt)) was 1532.9 ± 122.9 RLU/μg-Protein. The “RLU/μg-Protein (luciferase activity)” value (MDA-MB-231 cells; ratio mRNA:polymer 1:8 (wt:wt)) was 1656.3 ± 202.5 RLU/μg-Protein and the “RLU/μg-Protein (luciferase activity)” value (MDA-MB-231 cells; ratio mRNA:polymer 1:12 (wt:wt)) was 1033.4 ± 197^ RLU/μg-Protein.

From patent US20230313181A1, “HISTIDINE-LYSINE POLYMERS AND METHODS FOR DELIVERING MRNA USING THE SAME” (UNIVERSITY OF MARYLAND, BALTIMORE, priority 2019, published 2023)
